According to a melting point compilation (Tetko et al.; mined from patent text by program, amines drawn as free bases though some values may be those of a salt):

In the case of `O=C(O)Cc1ccc(S(=O)(=O)c2ccc(Cl)cc2)cc1`, the melting point is reported as 153 to 157 °C.
Compound `COc1ccc(-c2nn(Cc3ccccc3)c(=O)c3ccccc23)c(O)c1OC` has a melting point of 155 to 156 °C.
In the case of `CCNC(=O)c1cc(Cl)ccc1[Si](C)(C)C`, the melting point is reported as 104 to 105 °C.
Work on `Oc1cccc(-c2nc3ccccc3s2)c1` yielded a melting point of 110 °C.
With `OCc1ccc(C2=C(C3CCCC3)CCC2=NO)cc1` the melting point was 187 to 190 °C.
In the case of `NC(=O)Nc1ccc(O)cc1`, the melting point is reported as 96.3 to 98.3 °C.
With `CN(CCNC(=NCCSCc1csc(NC(=N)N)n1)NC#N)CCN(Cc1ccc(F)cc1)c1ccccn1` the melting point was 109 °C.
In the case of `CC(C)(C)c1ccc(S(=O)(=O)CS(=O)(=O)c2ccc(C(C)(C)C)cc2)cc1`, the melting point is reported as 150 to 152 °C.
With `Fc1cccc(CCc2nnc(-c3ccnc(NCCCc4ccccc4)c3)o2)c1` the melting point was 91 to 92 °C.
For `CC(C)CN1C(=O)[C@@H](CC(=O)O)O[C@H](c2ccccc2OC(C)C)c2cc(Cl)ccc21` (relative stereo), the melting point was 146 to 149 °C.
Compound `O=C(O)CSc1ccc(/C=C/C(=O)NCc2cccnc2)cc1` has a melting point of 160 to 161 °C.
`O=C(CCl)Nc1csc(Br)n1` gave a melting point of 146 to 148 °C.
`O=C(Nc1ccccc1)ONC1=Nc2ccc([N+](=O)[O-])cc2C(c2ccccc2Cl)=NC1` gave a melting point of 201 to 203 °C.
Work on `CCN1CCCC1CNS(=O)(=O)c1ccc(Nc2ccnc3cc(C(F)(F)F)ccc23)cc1` (configuration not stated) yielded a melting point of 194 to 195 °C.
For `NCCN1C(=O)c2ccccc2C1(O)c1ccccc1Cl` (configuration not stated), the melting point was 172 to 174 °C.
With `NCCON=C1c2ccccc2C2CC2c2ccccc21` (configuration not stated) the melting point was 133 to 134 °C.
Work on `CCOC(=O)C(=O)Nc1c([N+](=O)[O-])sc2c(F)cccc12` yielded a melting point of 148 to 151 °C.
For `CCCCOC(=O)c1ccc2ccc(C=O)nc2c1OC(=O)C(C)(C)C`, the melting point was 108 °C.
`c1ccc2c(c1)c(-c1cc3nccnc3[nH]1)cn2CCCN1CCCCC1` gave a melting point of 240 °C.
For `CC(C)(C)Nc1cc(N2CCNCC2)nc(N2CCCC2)n1`, the melting point was 140 to 145 °C.
Compound `CCNc1cncc(C(=NCCO[N+](=O)[O-])NC#N)c1` has a melting point of 100 °C.
`Cn1cc(S(=O)(=O)Cl)c(=O)c2cc(F)ccc21` gave a melting point greater than 300 °C.
`O=C(O)CCC(=O)C(=O)N1CCCC1` gave a melting point of 101 to 102 °C.
Compound `CCc1cnc2c(NC(=O)c3c(Cl)cccc3Cl)cccc2c1CCC(=O)O` has a melting point of 236 to 237 °C.
For `CCC(=NO)c1ccc(OCCCCCCCc2cc(C)no2)cc1`, the melting point was 88 to 89 °C.
In the case of `Cc1ccc([C@@H]2C[C@H]3C=C(c4n[nH]c(-c5ccc(F)cc5)c4-c4ccncc4)CCN3C2)cc1`, the melting point is reported as 222 to 225 °C.
For `CON=C(C)c1ccccc1NC(C(N)=O)c1c(Cl)cccc1Cl` (configuration not stated), the melting point was 206 °C.
In the case of `Nc1c(F)c(F)cc2c1c(=O)c(C(=O)O)cn2C1CC1`, the melting point is reported as greater than 300 °C.
Compound `CCOC(=O)Cc1ccc(NC(=O)C(CO)NS(=O)(=O)c2ccc(Cl)cc2)cc1` (racemic) has a melting point of 139 to 140 °C.
For `COc1ccc2nn(C)cc2c1C1CC1CNC(C)=O` (configuration not stated), the melting point was 104 to 105 °C.
`COc1ccc(S(=O)(=O)C(C)(Cc2ccc(OCCCN3CCN(c4cccc(Cl)c4)CC3)cc2)C(=O)NO)cc1` (configuration not stated) showed a melting point of 122 °C.
Work on `COC(=O)c1ccc(OCC2CCCN(C)C2)cc1` (configuration not stated) yielded a melting point of 55 to 56 °C.
For `O=c1[nH]c2cc(Cl)ccc2c(O)c1Sc1ccccc1Br`, the melting point was greater than 300 °C.
`Cc1cc(C2=NN(C3=NCCS3)C(C)Cc3cc4c(cc32)OCO4)ccc1[N+](=O)[O-]` (configuration not stated) showed a melting point of 130 to 135 °C.
Compound `CCCCc1nc(Cl)c(C(=O)O)n1Cc1ccc2oc(-c3ccccc3C(=O)O)c(Br)c2c1` has a melting point of 148 to 152 °C.
With `Cc1cc(=S)cc(C)n1CCNC(=O)OC(C)(C)C` the melting point was 175 to 178 °C.
`COc1ccc2[nH]cc3c2c1[C@@]1(C)OCCN(C)[C@@H]1C3` (relative stereo) gave a melting point of 200 to 202 °C.
For `CCc1nc2ncnn2c(N)c1CCc1ccccc1`, the melting point was 210 to 211 °C.
`CC(=O)Nc1ncc(Sc2ccc(NS(C)(=O)=O)cc2)s1` showed a melting point of 236 to 239 °C.
Work on `O=C1CCC(N2Cc3c(OCc4ccc(CN5CCC(Oc6ccccc6)CC5)cc4)cccc3C2=O)C(=O)N1` (configuration not stated) yielded a melting point of 180 to 182 °C.
`N#Cc1ccccc1Cn1cc(C(=O)C(=O)NC2=CC(=O)OC2)c2ccccc21` showed a melting point of 229 to 231 °C.
Compound `O=C(O)[C@H](Cc1ccc(C(F)(F)F)cc1)[C@H](O)c1ccc(F)cc1` (racemic) has a melting point of 111 to 112 °C.
Work on `CN(C)c1ccc(-c2cnc3[nH]cc(C(=O)N[C@@H](C(=O)N4CC(C#N)C4)C4CC4)c3n2)cc1` yielded a melting point of 175 to 180 °C.
`CC(C)(C)S(=O)c1cccc(F)c1C(=O)NCCCl` (configuration not stated) gave a melting point of 80 to 90 °C.
`O=c1nc(N(Cc2nnn[nH]2)c2ccc(Cl)cc2)sc2ncccc12` showed a melting point of 258 to 259 °C.
Compound `CC(=O)Nc1cc2c(cc1[N+](=O)[O-])OCCCO2` has a melting point of 139 to 140 °C.
In the case of `O=Cc1cccnc1Oc1ccc(Cl)c(Cl)c1`, the melting point is reported as 97 to 99 °C.
Compound `CC1(C)COC(=O)N1Br` has a melting point of 118 to 120 °C.
Work on `O=C(COc1ccccc1Cl)NCCO[N+](=O)[O-]` yielded a melting point of 57 to 58 °C.
For `CCNS(=O)(=O)c1ccc(NC(C)=O)cc1`, the melting point was 90 to 91 °C.
In the case of `COc1cccc(CNC(=O)c2nc3sc(C(=O)O)c(C)c3c(=O)[nH]2)c1`, the melting point is reported as greater than 300 °C.
`CC(C)NCC(O)COc1ccccc1-c1ccc(=O)[nH]n1` (configuration not stated) showed a melting point of 150 to 152 °C.
Work on `Cc1cc(F)ccc1C(=O)CCCN1CCC(O)(c2cccc(C(F)(F)F)c2)CC1` yielded a melting point of 63.5 °C.
In the case of `CCS(=O)(=O)N(C)C1c2cc(F)c(Cl)cc2OC(C)(C)C1OC(C)=O` (configuration not stated), the melting point is reported as 143 to 144 °C.
Work on `Sc1nc(CCCC2CCCCC2)c[nH]1` yielded a melting point of 176 to 177 °C.
`CCc1cn(C2CC(O)C(CNCc3ccccc3)O2)c(=O)[nH]c1=O` (configuration not stated) gave a melting point of 121 to 124 °C.
In the case of `COc1ccc2c(c1Cl)CCCC2=O`, the melting point is reported as 130 to 131 °C.
Work on `CC(C=CC=C(C)c1cc2c(s1)C(C)(C)CCC2(C)C)=CC(=O)O` yielded a melting point of 226 to 228 °C.
`COc1ccc([C@H]2CC[C@H](c3ccc(OC)c(OC)c3)S2)cc1OC` (relative stereo) showed a melting point of 103 to 105 °C.
In the case of `N#CCc1ccc(-c2cn3ccccc3n2)cc1`, the melting point is reported as 175 to 177 °C.
`Clc1ccc(CCC(Cn2ccnc2)OCC=Cc2ccccc2)cc1` (configuration not stated) gave a melting point of 115 to 116 °C.
Compound `c1cc(Nc2nncc3ccccc23)cc(-n2ccnc2)c1` has a melting point of 135 to 137 °C.
With `COC(=O)c1[nH]c2c(C)ccc(Cl)c2c1C(C)=O` the melting point was 167 to 168 °C.
`COC(=O)CC1(c2c(C)c(OC)c(C)c(C)c2OC)C=CC2=NCOC2=C1` (configuration not stated) showed a melting point of 68 to 69 °C.
With `Cn1c(C2CCN(C(=O)OC(C)(C)C)CC2)nc2cc(-c3ccc(S(C)(=O)=O)cc3F)ccc21` the melting point was 85 to 88 °C.
With `CC(C)COc1c(-c2ccc(S(N)(=O)=O)cc2)cnn(-c2ccc(F)cc2)c1=O` the melting point was 132 to 136 °C.
Work on `COC1(c2cc(F)cc(Sc3ccc(C(CO)=NO)cc3)c2)CCOCC1` yielded a melting point of 145 to 146 °C.
`COc1c(N2CC(C)(N)C3(CC3)C2)c(F)cc2c(=O)c(C(=O)O)cn([C@@H]3C[C@@H]3F)c12` (some centres not stated) showed a melting point of 195 to 200 °C.
For `O=C(O)c1cn(-c2cccnc2)cn1`, the melting point was 265 to 266 °C.
Compound `COC(=O)C1=C(COCCn2c(C)nc(C)c2C)Nc2c(c(=O)n(C)c(=O)n2C)C1c1ccccc1Cl` (configuration not stated) has a melting point of 226 to 228 °C.
`COc1cc(CCCC(O)C(=O)OC(C)C)ccc1OCc1nc(-c2ccco2)oc1C` (configuration not stated) showed a melting point of 75 to 76 °C.
For `CCN(CC)C(=O)c1c(C(C)(O)c2cc3cnccc3n2S(=O)(=O)c2ccccc2)ccnc1OC` (configuration not stated), the melting point was 236 °C.
With `CS(=O)(=O)c1ccc(-c2c(-c3ccc(F)cc3)c(OCc3c(F)cccc3Cl)nn2Cc2c(F)cccc2Cl)cc1` the melting point was 195 to 196 °C.
With `CCCCNC(=O)NS(=O)(=O)c1ccccc1-c1nn(C)c(=O)o1` the melting point was 110 to 115 °C.
In the case of `CS(=O)(=O)N(Cc1cccnc1)c1ccc(C#N)cc1`, the melting point is reported as 73 to 75 °C.
For `CCCCCCCCCCCCCCCCCCNCP(=O)(O)O`, the melting point was 108 to 112 °C.
`O=c1oc2ccccc2c(O)c1C(Sc1ccc(Cl)cc1)c1cc(F)ccc1F` (configuration not stated) showed a melting point of 146 to 147 °C.
`Cc1oc(-c2cccc(-c3nc(CCO)c(C)o3)c2)nc1CCO` showed a melting point of 134 to 135 °C.
With `CCCCNc1cc(C)nc2cn[nH]c12` the melting point was 160 to 170 °C.
For `CCC(=O)OC1(C(=O)COC(C)=O)CCC2C3CC(C)C4=CC(=O)C=CC4(C)C3C(O)CC21C` (configuration not stated), the melting point was 138 °C.
Compound `CCc1ccc(Nc2nc3cc(NC(=O)c4ccc(Cl)cc4)ccc3o2)cc1` has a melting point greater than 250 °C.
In the case of `CCOC(=O)C(C)Oc1ccc(N(C)c2cc3ccc(Cl)cc3c(Cl)n2)cc1` (configuration not stated), the melting point is reported as 86 °C.
`COC(=O)CC1=c2ccccc2=Cc2ccccc2O1` gave a melting point of 59 to 63 °C.
For `CN(C)C=Nc1c(Cl)cc(N=Cc2ccccc2F)cc1Cl`, the melting point was 79 to 81 °C.
`CCCCn1c(=O)c(NC(=O)Nc2c(C(C)C)cccc2C(C)C)c(-c2cccc(OC)c2)c2cccnc21` showed a melting point of 178 to 181 °C.
Compound `NS(=O)(=O)c1cc2c(s1)S(=O)CC(=O)N2` (configuration not stated) has a melting point of 222 to 223 °C.
For `COc1ccccc1N1CCN(C(=S)Nc2nc3ccccc3nc2OC)CC1`, the melting point was 160 to 162 °C.
`CN(C)C(=O)Cn1c(-c2ccc(F)cc2)nc2cccnc21` showed a melting point of 180 to 183 °C.
For `CCN(CC)CCOc1ccc(C(=O)c2c(-c3ccccc3)oc3ccccc23)cc1`, the melting point was 125 to 127 °C.
With `COc1ccc(NC(=O)CCl)c(OC)c1` the melting point was 90 to 91 °C.
For `c1ccc(-c2c3ccccc3nc3ccccc23)nc1`, the melting point was 192 to 205 °C.
Compound `CC(=O)OC1NC(=O)C2=C1CN=C(c1ccccc1Cl)c1cc(Cl)ccc12` (configuration not stated) has a melting point of 172 to 174 °C.
Compound `C[Si](C)(C)c1ccc(-c2ccc(Br)cc2F)c(F)c1F` has a melting point of 78 °C.
Work on `CC(=O)OCC(=O)NCc1ccc(-c2csc(N)n2)s1` yielded a melting point of 149 to 150 °C.
`O=C(O)Cc1ccc2nc(Nc3ccccc3)oc2c1` gave a melting point of 222 to 223 °C.
With `CC(=O)c1ccc(Cl)c2c1OC(F)(F)O2` the melting point was 40 °C.
Work on `Cn1c(C=Cc2ccccc2)cnc1[N+](=O)[O-]` yielded a melting point of 170 to 180 °C.
With `COc1ccc2cc(OCc3ccccc3)c(C(=O)O)cc2c1` the melting point was 177 to 179 °C.
Compound `ON=Cc1cc(Cl)ncc1Cl` has a melting point of 173 to 174 °C.
`COc1ccc(C(=O)CC(C)(C)C(=O)O)cc1OC` gave a melting point of 114 to 116 °C.
With `N#Cc1ccc(Nc2ncc(Cl)c(O)n2)cc1` the melting point was greater than 300 °C.
Compound `CC(C(=O)NCCN(C)C)c1ccc(-c2cn3ccccc3n2)cc1` (configuration not stated) has a melting point of 149 to 150 °C.
